Results as given in patent publication US20240139210A1, “TREATMENT OF NF-KB-MEDIATED DISEASE” (ReveraGen BioPharma, Inc., priority 2020, published 2024).

Key:
participants with DMD [1] = assay: VBP15-003/VBP15-LTE open-label trials, motor outcomes over 18 months; format: in vivo, human; conditions: for TTCLIMB velocity, LS mean difference (SE), ANCOVA / TTSTAND velocity, LS mean difference (SE), ANCOVA / TTRW velocity, LS mean difference (SE), ANCOVA: vamorolone 18 months vs corticosteroid-naïve DNHS
Text: Assessments of efficacy were motor outcomes (primary outcome: time to stand from supine [TTSTAND]; secondary outcomes: time to run/walk 10 meters [TTRW], time to climb four stairs [TTCLIMB], distance covered in 6-minute walk test [6MWT], and the North Star Ambulatory Assessment [NSAA]). 6MWT and NSAA were not assessed in most CINRG DNHS participants and were not compared to vamorolone-treated participants. According to standard operating procedures, clinical evaluators were trained to harmonize the CINRG vamorolone, CINRG DNHS, and CINRG prednisone studies. Reliability of these outcomes (percent coefficient of variation) has been reported for the VBP15-002/VBP15-003 studies. Assessments were done at baseline (VBP15-002 entry), 24 weeks (VBP15-003 last visit), and 18 months (VBP15-LTE midpoint assessment at 12 months).
Only participants completing VBP15-002 and VBP15-003 were eligible to enroll in VBP15-LTE. Participants received vamorolone at 1 of 4 dose levels (0.25, 0.75, 2.0, or 6.0 mg/kg/day) and at the same dose level in both the 4-week VBP15-002 trial and the 24-week VBP15-003 trial. If participants, their families, and their physicians wished to continue vamorolone treatment upon exiting the VBP15-003 trial, they were offered participation in the 24-month long-term extension (VBP15-LTE). The last visit of the VBP15-003 trial was commensurate with the first visit of the VBP15-LTE trial. In all studies, study medication was provided as 4% flavored liquid suspension and was dosed according to body weight and given once daily in the morning with food.
Vamorolone-treated participants were initially enrolled into VBP15-002 and VBP15-003 in 4 dose groups (0.25, 0.75, 2.0, and 6.0 mg/kg/day; groups A-D). Upon entering VBP15-LTE, vamorolone group A participants had 2 or 3 sequential dose escalations and were treated with 2.0 or 6.0 mg/kg/day for the last 3-9 months of the 18 months; group B participants had 1 or 2 dose escalations and were treated with 2.0 or 6.0 mg/kg/day for the last 9-11 months. Groups C and D were treated for 18 months at 2.0 or 6.0 mg/kg/day (S1 Fig).
The current study is the first to evaluate the longer-term tolerability, efficacy, and safety of vamorolone in DMD. […] Given the variable timing of dose escalations, it was prespecified that initial analyses of drug-related efficacy and safety would be limited to those participants who had 18 months of treatment with 2.0 mg/kg/day vamorolone or more (dose group C+dose group D; n=23). Outcomes for these participants were compared to a group-matched cohort from the CINRG DNHS over 18 months (corticosteroid-naïve, n=19; corticosteroid-treated, n=68). Participants were matched for age and treatment period (±1 month), matching criteria were prespecified in the statistical analysis plan. Two independent statisticians carried out the matching.
Statistical analyses were done on paired longitudinal outcome data using an analysis of covariance (ANCOVA) approach with change from baseline (VBP15-002) to month 18 (midpoint of VBP15-LTE). Baseline response and age were included as covariates. For the vamorolone-treated participants, age was calculated as (date of informed consent minus birthdate)/365.25. For the DNHS participants, age was calculated as (date of baseline visit used minus birthdate)/365.25. The baseline visit for a DNHS participant was the first visit. […] Timed function tests were analyzed as velocity scores to limit the impact of participants who could not perform the test (velocity=0). Velocity measures are variance-stabilizing transformations, suppressing extreme raw outliers from raw values in seconds; these help with distributional assumptions of the statistical models/tests used. Raw data (seconds) are also reported. Velocity scores for TTSTAND (event/second), TTRW (meters/second), and TTCLIMB (event/second) were inputted as 0 at the first response missing due to inability to perform the test. All other data were observed values only, without imputation. […]

participants with DMD [2] = assay: VBP15-LTE Month 24 PODCI and skeletal maturation by wrist x-ray; format: in vivo, human; conditions: for Bone Age difference to Chronologic Age, mean (SD): LTE Month 24, wrist x-ray
Text: In addition, 39/41 LTE participants had wrist x-ray at Month 24; the mean bone age to chronologic age difference was −1.1 (p<0.001, CI −1.5, −0.7), indicating possible skeletal maturation delay (Table 7).
PODCI is the Pediatrics Outcomes Data Collection Instrument (musculoskeletal disorders). The PODCI is a disease-specific questionnaire developed by the American Academy of Orthopedic Surgeons to measure general health and problems related to bone and muscle conditions in children. A significant increase in mean PODCI upper extremity and physical function standardized score was observed from LTE baseline to Month 24 (7.95±12.54, CI 1.003, 14.897, p=0.0278, n=15) for the combined 2.0 and 6.0 mg/kg/day initial dose group. At the same time, a non-significant decrease in mean PODCI transfer and basic mobility standardized score was observed (−4.38±22.68, CI −16.471, 7.703, p=0.451, n=16) (Table 7).

[3] = tested on: ambulant boys aged 4 to <7 years with DMD; assay: VBP15-004 adverse events; parameters: species or system human; conditions: in vivo
Text: The second period of 24 weeks, where all participants receive vamorolone treatment on either of the two dose levels, will continue to capture additional longer-term safety and tolerability data.
The study completion rate at 24 weeks was 94% (or 114 of 121 participants).
Pre-specified AESIs typically for corticosteroids were higher in prednisone-treated subjects than vamorolone-treated subjects after 24 weeks of treatment (Table 10).

[4] = vamorolone 18 months vs corticosteroid-naïve participants
[5] = LTE baseline to Month 24, combined 2.0 and 6.0 mg/kg/day initial dose group
[6] = assigned to high dose (2.0 and 6.0 mg/kg/day) at start of the study

C[C@@H]1C[C@H]2[C@@H]3CCC4=CC(=O)C=C[C@]4(C)C3=CC[C@]2(C)[C@@]1(O)C(=O)CO [Vamorolone, 17α,21-dihydroxy-16α-methylpregna-1,4,9(11)-triene-3,20-dione]
TTCLIMB velocity, LS mean difference (SE), ANCOVA (participants with DMD [1]): 0.059 (0.026) event/second
TTSTAND velocity, LS mean difference (SE), ANCOVA (participants with DMD [1]): 0.042 (0.024) event/second
TTRW velocity, LS mean difference (SE), ANCOVA (participants with DMD [1]; listed as Valmorolone): 0.286 (0.09) meters/second
TTCLIMB velocity, LS mean difference (SE), ANCOVA (participants with DMD [1]; listed as vamorolone): 0.059 event/second
TTRW velocity, LS mean difference (SE), ANCOVA (participants with DMD [1]; listed as vamorolone): 0.286 meters/second
TTSTAND velocity, LS mean difference (SE), ANCOVA (participants with DMD [1]; listed as vamorolone): 0.042 event/second
TTCLIMB, LS mean difference, ANCOVA (participants with DMD [1]; [4]): -0.34 s
TTRW, LS mean difference, ANCOVA (participants with DMD [1]; [4]): -0.84 s
TTSTAND, LS mean difference, ANCOVA (participants with DMD [1]; [4]): -1.15 s
Bone Age difference to Chronologic Age, mean (SD) (participants with DMD [2]; n = 39): −1.1 (1.2), yr
Bone Age difference to Chronologic Age, mean (SD) (participants with DMD [2]; n = 39, listed as vamorolone): −1.1 yr
PODCI transfer and basic mobility, change from baseline (SD) (participants with DMD [2]; [5]): −4.38±22.68
PODCI upper extremity and physical function, change from baseline (SD) (participants with DMD [2]; [5]): 7.95±12.54
PODCI transfer and basic mobility, 24 months from LTE baseline, mean (SD) (participants with DMD [2]; [6]): 81.4 (17.5), n = 18
PODCI transfer and basic mobility, LTE baseline, mean (SD) (participants with DMD [2]; [6]): 86.5 (9.2), n = 19
PODCI upper extremity and physical function, 24 months from LTE baseline, mean (SD) (participants with DMD [2]; [6]): 82.3 (10.9), n = 18
PODCI upper extremity and physical function, LTE baseline, mean (SD) (participants with DMD [2]; [6]): 75.3 (15.1), n = 18
LTE Month 24 Bone Age by wrist x-ray, mean (SD) (participants with DMD [2]; n = 39, chronologic age 8.0 (1.0) yr): 6.8 (1.4), n = 39 yr
clinically relevant psychiatric events, subjects [3]: no vamorolone-treated subjects
moderate/severe behavior problems, subjects ([3]; male, human, 24 weeks): 1.7%
